One block for each compound: values may come before it.
Test system: 349418-098-R-PDC complex spheroid viability
Experiment: Anticancer human tumor 349418-098-R-PDC patient-derived lung adenocarcinoma cell line growth inhibition [RAS]
Conditions: for IC50: curve of first compound; for viability, T/C: stronger effect = lower value
Procedure, shortened: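 Tumour cells grown as complex spheroids with HUVEC endothelial cells and mesenchymal stem cells, treated with RAS pathway inhibitor combinations. Each agent spans half-log steps from near clinical Cmax, or 10 microM where Cmax is unknown.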

[1] = second compound 0.0316 µM, first compound 0.000949 µM
[2] = second compound 0.0316 µM, first compound 0.003 µM
[3] = second compound 0.0316 µM, first compound 0.00949 µM
[4] = second compound 0.0316 µM, first compound 0.03 µM
[5] = second compound 0.0316 µM, first compound 0.0949 µM
[6] = second compound 0.0316 µM, first compound 0.3 µM
[7] = second compound 0.1 µM, first compound 0.000949 µM
[8] = second compound 0.1 µM, first compound 0.003 µM
[9] = second compound 0.1 µM, first compound 0.00949 µM
[10] = second compound 0.1 µM, first compound 0.03 µM
[11] = second compound 0.1 µM, first compound 0.0949 µM
[12] = second compound 0.1 µM, first compound 0.3 µM
[13] = second compound 0.316 µM, first compound 0.000949 µM
[14] = second compound 0.316 µM, first compound 0.003 µM
[15] = second compound 0.316 µM, first compound 0.00949 µM
[16] = second compound 0.316 µM, first compound 0.03 µM
[17] = second compound 0.316 µM, first compound 0.0949 µM
[18] = second compound 0.316 µM, first compound 0.3 µM
[19] = second compound 1 µM, first compound 0.000949 µM
[20] = second compound 1 µM, first compound 0.003 µM
[21] = second compound 1 µM, first compound 0.00949 µM
[22] = second compound 1 µM, first compound 0.03 µM
[23] = second compound 1 µM, first compound 0.0949 µM
[24] = second compound 1 µM, first compound 0.3 µM
[25] = second compound 3.16 µM, first compound 0.000949 µM
[26] = second compound 3.16 µM, first compound 0.003 µM
[27] = second compound 3.16 µM, first compound 0.00949 µM
[28] = second compound 3.16 µM, first compound 0.03 µM
[29] = second compound 3.16 µM, first compound 0.0949 µM
[30] = second compound 3.16 µM, first compound 0.3 µM
[31] = second compound 10 µM, first compound 0.000949 µM
[32] = second compound 10 µM, first compound 0.003 µM
[33] = second compound 10 µM, first compound 0.00949 µM
[34] = second compound 10 µM, first compound 0.03 µM
[35] = second compound 10 µM, first compound 0.0949 µM
[36] = second compound 10 µM, first compound 0.3 µM
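Note: spheroids exposed to compound for seven days before viability readout.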

IC50 (second compound 0.0316 µM): 1.12 nM | IC50 (second compound 0.1 µM): < 0.949 nM | IC50 (second compound 0.316 µM): < 0.949 nM | IC50 (second compound 1 µM): 1.34 nM | IC50 (second compound 3.16 µM): < 0.949 nM | IC50 (second compound 10 µM): < 0.949 nM
SMILES: CC1(C)CCC(Nc2ncc(C(F)(F)F)c(-c3c[nH]c4c(P(C)(C)=O)c(C#N)ccc34)n2)CN1 (centres undefined) + C#Cc1c(F)ccc2cc(O)cc(-c3ncc4c(N5CC6CCC(C5)N6)nc(OCC56CCCN5CC(F)C6)nc4c3F)c12
viability, T/C [1]: 54.5% | viability, T/C [2]: 25.6% | viability, T/C [3]: 14.3% | viability, T/C [4]: 11.7% | viability, T/C [5]: 11.1% | viability, T/C [6]: 7.01% | viability, T/C [7]: 34.8% | viability, T/C [8]: 24% | viability, T/C [9]: 17% | viability, T/C [10]: 9.95% | viability, T/C [11]: 8.49% | viability, T/C [12]: 8.13% | viability, T/C [13]: 49.9% | viability, T/C [14]: 26.9% | viability, T/C [15]: 12.6% | viability, T/C [16]: 10.3% | viability, T/C [17]: 10.5% | viability, T/C [18]: 8.25% | viability, T/C [19]: 57.1% | viability, T/C [20]: 33.4% | viability, T/C [21]: 13% | viability, T/C [22]: 10.9% | viability, T/C [23]: 11.2% | viability, T/C [24]: 8.31% | viability, T/C [25]: 43.3% | viability, T/C [26]: 24.5% | viability, T/C [27]: 12.6% | viability, T/C [28]: 10.2% | viability, T/C [29]: 9.93% | viability, T/C [30]: 8.57% | viability, T/C [31]: 48.4% | viability, T/C [32]: 23.8% | viability, T/C [33]: 16.3% | viability, T/C [34]: 10.4% | viability, T/C [35]: 9.78% | viability, T/C [36]: 7.07%

IC50 (second compound 0.0316 µM): 1.41 nM | IC50 (second compound 0.1 µM): 1.76 nM | IC50 (second compound 0.316 µM): 1.76 nM | IC50 (second compound 1 µM): 1.96 nM | IC50 (second compound 3.16 µM): 1.75 nM | IC50 (second compound 10 µM): 1.18 nM
SMILES: CCc1c2c(nc3ccc(O)cc13)-c1cc3c(c(=O)n1C2)COC(=O)[C@]3(O)CC + C#Cc1c(F)ccc2cc(O)cc(-c3ncc4c(N5CC6CCC(C5)N6)nc(OCC56CCCN5CC(F)C6)nc4c3F)c12
viability, T/C [1]: 58.9% | viability, T/C [2]: 33.1% | viability, T/C [3]: 10.8% | viability, T/C [4]: 4.93% | viability, T/C [5]: 3.89% | viability, T/C [6]: 2.53% | viability, T/C [7]: 74.7% | viability, T/C [8]: 28.7% | viability, T/C [9]: 10.6% | viability, T/C [10]: 5.19% | viability, T/C [11]: 4.46% | viability, T/C [12]: 2.82% | viability, T/C [13]: 70.9% | viability, T/C [14]: 32.1% | viability, T/C [15]: 8.77% | viability, T/C [16]: 4.98% | viability, T/C [17]: 3.85% | viability, T/C [18]: 2.45% | viability, T/C [19]: 81% | viability, T/C [20]: 32% | viability, T/C [21]: 9.89% | viability, T/C [22]: 6.27% | viability, T/C [23]: 4.67% | viability, T/C [24]: 2.58% | viability, T/C [25]: 65.8% | viability, T/C [26]: 36.2% | viability, T/C [27]: 10.1% | viability, T/C [28]: 5.33% | viability, T/C [29]: 3.62% | viability, T/C [30]: 2.21% | viability, T/C [31]: 57.9% | viability, T/C [32]: 17.1% | viability, T/C [33]: 4.95% | viability, T/C [34]: 2.94% | viability, T/C [35]: 1.84% | viability, T/C [36]: 0.77%

Reference: PubChem BioAssay AID2060904 (Molecular Pharmacology Branch, DTP, NCI, 2025)
